# Reference: PMC9816411, “Host-derived chimeric peptides clear the causative bacteria and augment host innate immunity during infection: A case study of HLB in citrus and fire blight in apple” (Frontiers in Plant Science, 2022)
# Ends that are not written are not given here.
# What was measured:
# [1] = tested on: E. coli strain BL21 (and, in some cases, ATCC25922); conditions: BL21, 24 h
# [2] = tested on: E. coli BL21; conditions: BL21, 24 h
Sequence,MIC [1],IC50 [2],IC99 (~MIC) [2]
FQWQRNIRKVR [11P-2],>20 µM,,
FWQRRIRRWRR [11P-3],>20 µM,49 ± 2.79 µM,160.80 ± 3.25 µM
FWQRRIRRWRRGSGYGSPGKKLIKKILKIL [30P-2],1.25 to 2.5 µM,,
FWQRRIRRWRRGSGYGSPGRRWWRWWR [27P-2],5 to 10 µM,,
IERSRNLDWYKGPTLLDALKNLNEGKRPSDK [I31LB],>20 µM,,
IERSTNLDWYKGPTLL [16P-1],>20 µM,,
KKLIKKILKIL [11P-1],10 to 20 µM,12.9 ± 0.62 µM,29.38 ± 0.75 µM
KKLPKEILKILGSGYGSLPKEILKILELKK [Gen-1],5 to 10 µM,10.22 ± 0.07 µM,11.4 ± 0.07 µM
KPRGSEQLQELTRRLLDSPLERRFWQWMRR [UGK-37],>20 µM,,
KPRGSEQLQELTRRLLDSPLERRWWEWMRR [UGK-29],>20 µM,,
KPRLSEQLQELTRRLLDSPLERRWWEWWRR [UGK-33],>20 µM,,
KRPEELLQKLKSLEGSKAHLQHHDWTSK [UGK-41],>20 µM,,
LPKRLEELLQKLKSLEGSKAHEKLHDWTRK [UGK-45],>20 µM,,
QPKRLEELLEKLKSLEGSKAHEKLHDWTRK [UGK-49],>20 µM,,
RLPEAFQWQRNIRKVRRPDSPGRRWWRWWR [UGK-9],5 to 10 µM,,
RLPEAFQWQRRLRRWRRPDSPGRRWWRWWR [UGK-5],5 to 10 µM,,
RLPKAFQWQRRLRRWRRPYSPGRRWWRWWR [UGK-1],5 to 10 µM,,
RRWWRWWR [8P-1],>20 µM,,
RRWWRWWRGSGYGSPGFWQRRIRRWRR [27P-1],>20 µM,,
RRWWRWWRGSYGSVYGSPGFWQRRIRRWRR [UGI-7],5 to 10 µM,,
